# According to ChEMBL document CHEMBL5465560, “Selectivity Literature for EUbOPEN Chemogenomic Library” (2024):
# Columns and labels:
# [1] = target: Serine/threonine-protein kinase MRCK gamma (Homo sapiens) (UniProt Q6DT37); experiment: Selectivity interaction (KinomeScan (DiscoverX)) EUB0001049a CDC42BPG; details: at 1 µM
# [2] = target: Calcium/calmodulin-dependent protein kinase type 1D (Homo sapiens) (UniProt Q8IU85); experiment: Selectivity interaction (KinomeScan (DiscoverX)) EUB0000666a CAMK1D; details: at 10 µM
# [3] = target: T1, Receptor-interacting serine/threonine-protein kinase 1 (Homo sapiens) (UniProt Q13546); experiment: Selectivity interaction (KinomeScan (DiscoverX)) EUB0000666a RIPK1; details: at 10 µM
# T1 sequence (whole entry): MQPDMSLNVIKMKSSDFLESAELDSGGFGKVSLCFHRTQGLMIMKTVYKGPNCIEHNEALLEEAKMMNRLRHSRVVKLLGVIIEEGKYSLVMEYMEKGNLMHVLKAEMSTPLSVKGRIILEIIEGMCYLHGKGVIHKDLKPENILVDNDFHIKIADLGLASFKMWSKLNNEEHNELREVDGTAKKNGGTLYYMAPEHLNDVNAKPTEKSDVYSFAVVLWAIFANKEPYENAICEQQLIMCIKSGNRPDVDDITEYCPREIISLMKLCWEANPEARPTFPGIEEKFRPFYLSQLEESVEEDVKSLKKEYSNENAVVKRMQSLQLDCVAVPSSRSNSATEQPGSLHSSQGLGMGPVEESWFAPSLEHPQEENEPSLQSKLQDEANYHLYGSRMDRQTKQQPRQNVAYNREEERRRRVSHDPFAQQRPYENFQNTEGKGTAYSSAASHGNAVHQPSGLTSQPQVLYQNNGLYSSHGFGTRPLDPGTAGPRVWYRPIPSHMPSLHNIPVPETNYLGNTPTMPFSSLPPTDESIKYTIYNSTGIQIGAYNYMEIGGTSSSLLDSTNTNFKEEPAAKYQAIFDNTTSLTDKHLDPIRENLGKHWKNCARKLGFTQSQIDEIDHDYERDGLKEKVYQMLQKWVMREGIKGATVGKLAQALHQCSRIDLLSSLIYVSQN
# [4] = target: Serine/threonine-protein kinase 24 (Homo sapiens) (UniProt Q9Y6E0); experiment: Selectivity interaction (KinomeScan (DiscoverX)) EUB0000229b STK24; details: at 10 µM
# [5] = target: DNA-dependent protein kinase catalytic subunit (Homo sapiens) (UniProt P78527); experiment: Selectivity interaction (ActivX KiNativ screen (kinase selectivity in THP-1 cell lysates)) EUB0000639a PRKDC; assay type: subcellular; details: lysate, at 5 µM
# [6] = target: T2, Tyrosine-protein kinase Tec (Homo sapiens) (UniProt P42680); experiment: Selectivity interaction (KinomeScan (DiscoverX)) EUB0000618a TEC; details: at 10 µM
# T2 sequence (whole entry): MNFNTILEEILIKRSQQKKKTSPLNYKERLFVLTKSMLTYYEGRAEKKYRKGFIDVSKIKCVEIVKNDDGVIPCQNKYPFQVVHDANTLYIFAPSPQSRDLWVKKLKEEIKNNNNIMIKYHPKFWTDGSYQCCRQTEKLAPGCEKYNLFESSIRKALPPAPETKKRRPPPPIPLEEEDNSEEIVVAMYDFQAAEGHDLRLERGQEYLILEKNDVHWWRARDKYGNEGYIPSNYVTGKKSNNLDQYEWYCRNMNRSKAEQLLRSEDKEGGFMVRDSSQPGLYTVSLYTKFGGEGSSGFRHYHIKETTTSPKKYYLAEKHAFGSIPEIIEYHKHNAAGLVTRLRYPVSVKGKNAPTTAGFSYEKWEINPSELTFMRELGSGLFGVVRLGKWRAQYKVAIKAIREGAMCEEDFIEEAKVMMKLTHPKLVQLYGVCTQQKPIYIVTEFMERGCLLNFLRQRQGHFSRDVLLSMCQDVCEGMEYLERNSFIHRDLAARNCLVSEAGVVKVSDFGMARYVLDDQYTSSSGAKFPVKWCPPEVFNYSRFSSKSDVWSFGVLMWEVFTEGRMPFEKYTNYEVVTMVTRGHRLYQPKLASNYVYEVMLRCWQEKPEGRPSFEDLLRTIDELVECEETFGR
# [7] = target: T3, Cyclin-dependent kinase-like 2 (Homo sapiens) (UniProt Q92772); experiment: Selectivity interaction (KinomeScan (DiscoverX)) EUB0001619a CDKL2; details: at 1 µM
# T3 sequence (whole entry): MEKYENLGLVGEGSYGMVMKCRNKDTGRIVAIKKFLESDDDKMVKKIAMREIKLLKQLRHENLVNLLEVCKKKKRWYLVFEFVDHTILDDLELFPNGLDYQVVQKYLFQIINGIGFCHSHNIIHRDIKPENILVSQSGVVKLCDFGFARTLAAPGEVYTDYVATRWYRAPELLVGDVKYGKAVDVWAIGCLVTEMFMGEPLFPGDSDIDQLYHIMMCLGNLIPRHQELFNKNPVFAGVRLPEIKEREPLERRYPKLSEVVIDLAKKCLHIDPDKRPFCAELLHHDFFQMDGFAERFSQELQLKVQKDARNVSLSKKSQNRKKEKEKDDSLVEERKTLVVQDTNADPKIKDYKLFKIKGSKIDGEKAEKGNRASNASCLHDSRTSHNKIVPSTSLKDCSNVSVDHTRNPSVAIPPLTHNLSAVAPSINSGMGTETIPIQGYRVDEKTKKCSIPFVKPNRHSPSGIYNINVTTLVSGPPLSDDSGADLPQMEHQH
# [8] = target: Tyrosine-protein kinase JAK2 (Homo sapiens, UniProt O60674); experiment: Selectivity interaction (KinomeScan (DiscoverX)) EUB0001619a JAK2; details: at 1 µM
# [9] = target: ALK tyrosine kinase receptor (Homo sapiens, UniProt Q9UM73); experiment: Selectivity interaction (KinomeScan (DiscoverX)) EUB0000655a ALK; details: at 10 µM
# [10] = test system: Leucine-rich repeat serine/threonine-protein kinase 2 (Homo sapiens), Q5S007 [G2019S]; experiment: (§1) Selectivity interaction (KinomeScan (DiscoverX)) EUB0000655a LRRK2; details: at 10 µM
# [11] = target: Leucine-rich repeat serine/threonine-protein kinase 2 (Homo sapiens, UniProt Q5S007); experiment: as §1; details: at 10 µM
# [12] = target: Protein-tyrosine kinase 6 (Homo sapiens, UniProt Q13882); experiment: Selectivity interaction (KinomeScan (DiscoverX)) EUB0000607a PTK6; details: at 10 µM
# [13] = target: Sodium-dependent noradrenaline transporter (Homo sapiens, UniProt P23975); experiment: Selectivity interaction (Panel of kinases, GPCRs, ion channels and transporters (enzymatic assay)) EUB0000223bCl SLC6A2
# Sodium-dependent noradrenaline transporter, sequence (P23975 whole entry): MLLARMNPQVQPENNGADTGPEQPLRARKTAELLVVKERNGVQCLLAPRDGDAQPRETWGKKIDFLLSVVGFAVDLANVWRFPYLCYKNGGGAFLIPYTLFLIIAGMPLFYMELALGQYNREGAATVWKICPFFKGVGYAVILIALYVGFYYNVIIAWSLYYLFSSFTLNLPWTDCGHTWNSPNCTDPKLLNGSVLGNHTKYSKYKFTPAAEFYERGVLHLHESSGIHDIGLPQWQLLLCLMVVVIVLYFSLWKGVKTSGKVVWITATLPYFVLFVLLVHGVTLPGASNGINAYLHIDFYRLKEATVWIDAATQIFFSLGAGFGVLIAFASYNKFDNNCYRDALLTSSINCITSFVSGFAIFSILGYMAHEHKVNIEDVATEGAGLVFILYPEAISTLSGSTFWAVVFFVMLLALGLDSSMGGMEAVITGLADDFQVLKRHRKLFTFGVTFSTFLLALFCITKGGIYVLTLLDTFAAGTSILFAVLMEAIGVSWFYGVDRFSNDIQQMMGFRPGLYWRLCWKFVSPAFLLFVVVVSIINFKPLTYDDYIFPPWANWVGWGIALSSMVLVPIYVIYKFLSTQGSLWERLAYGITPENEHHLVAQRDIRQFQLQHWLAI
# Leucine-rich repeat serine/threonine-protein kinase 2, sequence (Q5S007 whole entry): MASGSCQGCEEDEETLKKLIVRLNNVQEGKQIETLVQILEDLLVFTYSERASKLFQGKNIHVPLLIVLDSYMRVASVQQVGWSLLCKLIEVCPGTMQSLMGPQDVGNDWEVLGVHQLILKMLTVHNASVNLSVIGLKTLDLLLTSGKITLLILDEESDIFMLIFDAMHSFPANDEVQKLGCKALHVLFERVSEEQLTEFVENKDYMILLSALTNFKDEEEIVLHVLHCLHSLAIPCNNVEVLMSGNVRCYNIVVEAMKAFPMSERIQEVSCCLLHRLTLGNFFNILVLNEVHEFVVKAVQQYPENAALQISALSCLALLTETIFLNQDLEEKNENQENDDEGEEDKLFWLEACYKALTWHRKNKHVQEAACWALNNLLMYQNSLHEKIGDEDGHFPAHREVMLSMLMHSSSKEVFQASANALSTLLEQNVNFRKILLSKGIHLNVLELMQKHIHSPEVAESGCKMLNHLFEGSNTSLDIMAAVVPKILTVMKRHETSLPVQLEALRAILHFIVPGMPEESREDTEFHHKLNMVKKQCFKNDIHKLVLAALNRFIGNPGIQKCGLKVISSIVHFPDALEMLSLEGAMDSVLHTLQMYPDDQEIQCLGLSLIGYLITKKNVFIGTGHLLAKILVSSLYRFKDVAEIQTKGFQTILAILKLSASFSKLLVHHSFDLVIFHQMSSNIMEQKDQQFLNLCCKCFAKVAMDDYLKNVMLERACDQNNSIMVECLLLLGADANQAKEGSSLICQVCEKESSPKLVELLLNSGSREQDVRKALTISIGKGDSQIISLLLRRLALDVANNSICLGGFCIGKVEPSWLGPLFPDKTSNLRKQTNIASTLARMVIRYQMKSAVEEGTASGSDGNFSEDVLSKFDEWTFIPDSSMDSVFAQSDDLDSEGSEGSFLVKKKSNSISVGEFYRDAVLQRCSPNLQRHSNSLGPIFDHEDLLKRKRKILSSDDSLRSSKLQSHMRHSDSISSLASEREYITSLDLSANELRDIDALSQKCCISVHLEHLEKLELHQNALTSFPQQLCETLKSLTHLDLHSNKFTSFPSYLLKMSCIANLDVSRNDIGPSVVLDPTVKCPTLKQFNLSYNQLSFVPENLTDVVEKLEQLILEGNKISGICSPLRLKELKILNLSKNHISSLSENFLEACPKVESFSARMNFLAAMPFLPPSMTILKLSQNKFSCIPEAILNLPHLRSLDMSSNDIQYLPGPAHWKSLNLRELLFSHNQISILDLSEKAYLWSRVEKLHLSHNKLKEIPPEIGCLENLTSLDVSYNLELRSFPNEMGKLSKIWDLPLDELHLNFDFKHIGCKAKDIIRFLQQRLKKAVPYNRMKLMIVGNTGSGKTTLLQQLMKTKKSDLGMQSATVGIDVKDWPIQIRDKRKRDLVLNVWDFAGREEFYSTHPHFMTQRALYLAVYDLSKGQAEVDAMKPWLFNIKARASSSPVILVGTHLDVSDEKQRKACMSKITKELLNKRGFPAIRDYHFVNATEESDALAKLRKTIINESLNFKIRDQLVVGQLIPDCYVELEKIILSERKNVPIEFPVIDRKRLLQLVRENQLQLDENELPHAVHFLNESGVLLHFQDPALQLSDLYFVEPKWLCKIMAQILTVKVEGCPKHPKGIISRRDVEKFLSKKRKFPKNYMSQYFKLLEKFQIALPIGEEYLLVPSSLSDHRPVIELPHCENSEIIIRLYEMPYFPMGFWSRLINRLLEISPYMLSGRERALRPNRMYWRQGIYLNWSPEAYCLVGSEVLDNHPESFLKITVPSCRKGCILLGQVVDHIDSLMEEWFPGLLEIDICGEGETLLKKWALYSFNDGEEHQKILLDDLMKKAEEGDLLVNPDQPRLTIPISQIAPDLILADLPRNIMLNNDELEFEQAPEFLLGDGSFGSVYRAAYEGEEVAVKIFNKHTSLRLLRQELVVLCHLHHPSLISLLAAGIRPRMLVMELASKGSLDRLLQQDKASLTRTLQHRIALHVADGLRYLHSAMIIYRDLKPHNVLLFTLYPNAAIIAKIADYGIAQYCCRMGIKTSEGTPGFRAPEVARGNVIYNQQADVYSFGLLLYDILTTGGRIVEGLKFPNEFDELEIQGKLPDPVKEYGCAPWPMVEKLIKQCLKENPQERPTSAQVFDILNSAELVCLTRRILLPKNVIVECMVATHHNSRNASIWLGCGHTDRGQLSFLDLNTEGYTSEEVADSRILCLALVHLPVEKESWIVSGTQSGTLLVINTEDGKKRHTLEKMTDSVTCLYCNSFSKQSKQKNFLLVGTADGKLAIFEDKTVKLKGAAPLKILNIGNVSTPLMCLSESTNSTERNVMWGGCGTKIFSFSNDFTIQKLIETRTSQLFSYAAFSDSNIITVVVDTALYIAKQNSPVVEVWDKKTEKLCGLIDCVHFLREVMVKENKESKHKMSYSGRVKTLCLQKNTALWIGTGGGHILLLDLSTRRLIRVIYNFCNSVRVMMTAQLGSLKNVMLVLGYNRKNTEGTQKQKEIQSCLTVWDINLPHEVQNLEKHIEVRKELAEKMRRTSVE
# Leucine-rich repeat serine/threonine-protein kinase 2 (Homo sapiens), Q5S007 [G2019S], sequence (Q5S007 whole entry G2019S): as the sequence (Q5S007 whole entry) above, with G2019S counted along it
# Serine/threonine-protein kinase 24 (Homo sapiens), sequence (Q9Y6E0 whole entry, looked up): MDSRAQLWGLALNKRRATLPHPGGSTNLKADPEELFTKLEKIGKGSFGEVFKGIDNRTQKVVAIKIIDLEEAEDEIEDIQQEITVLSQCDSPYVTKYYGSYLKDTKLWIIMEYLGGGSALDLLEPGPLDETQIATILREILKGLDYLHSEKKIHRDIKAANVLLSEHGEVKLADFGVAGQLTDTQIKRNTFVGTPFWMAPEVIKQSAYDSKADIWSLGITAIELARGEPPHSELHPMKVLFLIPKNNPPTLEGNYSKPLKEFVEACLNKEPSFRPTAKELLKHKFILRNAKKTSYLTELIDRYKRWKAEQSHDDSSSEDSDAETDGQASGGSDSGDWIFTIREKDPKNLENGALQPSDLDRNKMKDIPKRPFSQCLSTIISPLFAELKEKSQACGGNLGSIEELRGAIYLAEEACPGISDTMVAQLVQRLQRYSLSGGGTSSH
# Tyrosine-protein kinase JAK2, sequence (O60674 whole entry): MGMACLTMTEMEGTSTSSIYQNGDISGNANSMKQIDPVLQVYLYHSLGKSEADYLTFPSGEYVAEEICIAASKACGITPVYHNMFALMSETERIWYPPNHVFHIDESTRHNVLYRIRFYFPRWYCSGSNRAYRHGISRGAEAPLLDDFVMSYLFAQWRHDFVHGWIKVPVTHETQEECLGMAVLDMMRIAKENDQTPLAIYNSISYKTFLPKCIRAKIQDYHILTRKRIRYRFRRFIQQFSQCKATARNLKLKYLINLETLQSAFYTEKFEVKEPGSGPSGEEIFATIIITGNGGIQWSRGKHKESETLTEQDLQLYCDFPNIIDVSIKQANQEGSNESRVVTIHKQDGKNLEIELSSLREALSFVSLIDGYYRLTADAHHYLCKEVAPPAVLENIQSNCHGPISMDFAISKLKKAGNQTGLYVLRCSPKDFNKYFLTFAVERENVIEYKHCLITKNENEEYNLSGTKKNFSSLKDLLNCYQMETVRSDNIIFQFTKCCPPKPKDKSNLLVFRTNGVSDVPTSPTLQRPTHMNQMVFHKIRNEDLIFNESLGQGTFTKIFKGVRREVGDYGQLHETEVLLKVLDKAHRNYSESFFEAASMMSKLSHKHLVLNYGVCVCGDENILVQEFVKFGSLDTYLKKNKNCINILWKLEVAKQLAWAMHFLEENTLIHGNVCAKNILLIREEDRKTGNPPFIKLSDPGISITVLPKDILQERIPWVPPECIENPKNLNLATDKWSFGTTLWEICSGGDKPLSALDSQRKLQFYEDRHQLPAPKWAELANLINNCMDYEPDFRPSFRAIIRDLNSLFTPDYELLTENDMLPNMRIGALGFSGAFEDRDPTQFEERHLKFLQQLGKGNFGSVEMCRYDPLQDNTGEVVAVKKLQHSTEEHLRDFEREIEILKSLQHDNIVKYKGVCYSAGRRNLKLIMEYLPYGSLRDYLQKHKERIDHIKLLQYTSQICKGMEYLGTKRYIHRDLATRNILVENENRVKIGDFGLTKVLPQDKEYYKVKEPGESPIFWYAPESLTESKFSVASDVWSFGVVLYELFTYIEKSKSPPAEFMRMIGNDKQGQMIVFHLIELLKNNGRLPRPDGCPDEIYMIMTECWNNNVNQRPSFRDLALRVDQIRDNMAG
smiles,measurement,setting,value
COc1cc(Nc2nc(C)cc(-c3cnn4nc(OC)ccc34)n2)cc(C(F)(F)F)c1,% of control,[1],89%
O=C(NOC[C@H](O)CO)c1ccc(F)c(F)c1Nc1ccc(I)cc1F,% of control,[2],89%
same,% of control,[3],85%
COc1cc(N(C)c2ccnc3ccc(C(F)(F)F)cc23)cc(OC)c1OC,% binding,[4],95%
CC[C@@H]1[C@H](F)C(=O)N[C@@H]1COc1nccc2cc(C(N)=O)c(OC)cc12 [ZIMLOVISERTIB],% of inhibition,[5],-11.7%
O[C@H]1CC[C@H](Nc2ncc3nc(Nc4c(F)cc(F)cc4F)n([C@H]4CCOC4)c3n2)CC1,% of control,[6],100%
N#Cc1cccc(-c2c[nH]c3ncnc(N4CCOCC4)c23)c1,% of control,[7],98%
same,% of control,[8],71%
CN(C)CCOc1ccc(-c2nc(-c3ccncc3)c(-c3ccc4c(c3)CC/C4=N\O)[nH]2)cc1,% of control,[9],45%
same,% of control,[10],76%
same,% of control,[11],79%
CNC(=O)Nc1ccc(-c2nc(N3CC4CCC(C3)O4)c3cnn(C4CCC5(CC4)OCCO5)c3n2)cc1,% of control,[12],55%
COc1cc(C(=O)N2CC[C@@H](O)[C@@H](N)C2)cc2nc(-c3cc4ccccc4n3CC3CC3)n(C)c12,pXC50,[13],4.7 M
